# Measurements published in PubChem BioAssay AID2060625 (Molecular Pharmacology Branch, DTP, NCI, 2025).
# Test system: 186277-243-T-J2-PDC spheroids with HUVEC/MSC, viability
# Test: Anticancer human tumor 186277-243-T-J2-PDC patient-derived colon adenocarcinoma cell line growth inhibition [CLK]
# Conditions: for viability, T/C: stronger effect = lower value
# In short: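 Multi-cell-type spheroids combined patient-derived tumor cells with HUVEC endothelial cells and human mesenchymal stem cells. Paired agents were dosed in half-log steps down from about clinical Cmax, or from 10 microM where Cmax was unknown.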
# [1] = curve of first compound, second compound 0.0316 µM
# [2] = curve of first compound, second compound 0.1 µM
# [3] = curve of first compound, second compound 0.316 µM
# [4] = curve of first compound, second compound 1 µM
# [5] = curve of first compound, second compound 3.16 µM
# [6] = curve of first compound, second compound 10 µM
# [7] = second compound 0.0316 µM, first compound 0.0316 µM
# [8] = second compound 0.0316 µM, first compound 0.1 µM
# [9] = second compound 0.0316 µM, first compound 0.316 µM
# [10] = second compound 0.0316 µM, first compound 1 µM
# [11] = second compound 0.0316 µM, first compound 3.16 µM
# [12] = second compound 0.0316 µM, first compound 10 µM
# [13] = second compound 0.1 µM, first compound 0.0316 µM
# [14] = second compound 0.1 µM, first compound 0.1 µM
# [15] = second compound 0.1 µM, first compound 0.316 µM
# [16] = second compound 0.1 µM, first compound 1 µM
# [17] = second compound 0.1 µM, first compound 3.16 µM
# [18] = second compound 0.1 µM, first compound 10 µM
# [19] = second compound 0.316 µM, first compound 0.0316 µM
# [20] = second compound 0.316 µM, first compound 0.1 µM
# [21] = second compound 0.316 µM, first compound 0.316 µM
# [22] = second compound 0.316 µM, first compound 1 µM
# [23] = second compound 0.316 µM, first compound 3.16 µM
# [24] = second compound 0.316 µM, first compound 10 µM
# [25] = second compound 1 µM, first compound 0.0316 µM
# [26] = second compound 1 µM, first compound 0.1 µM
# [27] = second compound 1 µM, first compound 0.316 µM
# [28] = second compound 1 µM, first compound 1 µM
# [29] = second compound 1 µM, first compound 3.16 µM
# [30] = second compound 1 µM, first compound 10 µM
# [31] = second compound 3.16 µM, first compound 0.0316 µM
# [32] = second compound 3.16 µM, first compound 0.1 µM
# [33] = second compound 3.16 µM, first compound 0.316 µM
# [34] = second compound 3.16 µM, first compound 1 µM
# [35] = second compound 3.16 µM, first compound 3.16 µM
# [36] = second compound 3.16 µM, first compound 10 µM
# [37] = second compound 10 µM, first compound 0.0316 µM
# [38] = second compound 10 µM, first compound 0.1 µM
# [39] = second compound 10 µM, first compound 0.316 µM
# [40] = second compound 10 µM, first compound 1 µM
# [41] = second compound 10 µM, first compound 3.16 µM
# [42] = second compound 10 µM, first compound 10 µM
# 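Further: compound exposure lasted seven days before readout.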
# 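Wherever viability, T/C is given: 100% = DMSO vehicle control wells.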
structure (smiles),measurement,setting,value
C=C(F)C(=O)N1CCN(c2nc(OCC3CCCN3C)nc3c2CCN(c2cccc4cccc(Cl)c24)C3)CC1CC#N (stereo unspecified) + CNC(=O)c1ccc(Nc2nc(OC3CCCC3)c3c(-c4ccc5nc(C)oc5c4)c[nH]c3n2)c(OC)c1,IC50,[1],5.73 µM
same,IC50,[2],4.22 µM
same,IC50,[3],< 0.0316 µM
same,IC50,[4],< 0.0316 µM
same,IC50,[5],< 0.0316 µM
same,IC50,[6],< 0.0316 µM
same,"viability, T/C",[7],98%
same,"viability, T/C",[8],96.1%
same,"viability, T/C",[9],99.2%
same,"viability, T/C",[10],93.8%
same,"viability, T/C",[11],114%
same,"viability, T/C",[12],3.01%
same,"viability, T/C",[13],68.4%
same,"viability, T/C",[14],70.6%
same,"viability, T/C",[15],69.8%
same,"viability, T/C",[16],61.2%
same,"viability, T/C",[17],65.9%
same,"viability, T/C",[18],2.67%
same,"viability, T/C",[19],45.1%
same,"viability, T/C",[20],48.2%
same,"viability, T/C",[21],42.7%
same,"viability, T/C",[22],46%
same,"viability, T/C",[23],48.1%
same,"viability, T/C",[24],0.4%
same,"viability, T/C",[25],36%
same,"viability, T/C",[26],39.8%
same,"viability, T/C",[27],34.5%
same,"viability, T/C",[28],35.9%
same,"viability, T/C",[29],36.7%
same,"viability, T/C",[30],1.8%
same,"viability, T/C",[31],37.3%
same,"viability, T/C",[32],35.2%
same,"viability, T/C",[33],32.3%
same,"viability, T/C",[34],36.7%
same,"viability, T/C",[35],34.1%
same,"viability, T/C",[36],0.54%
same,"viability, T/C",[37],37.3%
same,"viability, T/C",[38],35.4%
same,"viability, T/C",[39],37.9%
same,"viability, T/C",[40],38%
same,"viability, T/C",[41],27.1%
same,"viability, T/C",[42],0.4%
COc1ccc([C@@H](O)c2cc(-c3ncnc4cc(N5CCOCC5)ccc34)c(F)cc2Cl)nn1,"viability, T/C",compound 0.0316 µM,95.1%
same,"viability, T/C",compound 0.1 µM,96.1%
same,"viability, T/C",compound 0.316 µM,117%
same,"viability, T/C",compound 1 µM,85.1%
same,"viability, T/C",compound 3.16 µM,87.2%
same,"viability, T/C",compound 10 µM,49.2%
same,IC50,curve of compound,9.91 µM
Nc1ccccc1NC(=O)c1ccc(CNC(=O)OCc2cccnc2)cc1 + CN1CCN(c2cc(C(=O)Nc3cc4cc(-c5cnn(C)c5)ccc4cn3)ccn2)CC1,IC50,[1],3.73 µM
same,IC50,[2],1.55 µM
same,IC50,[3],< 0.0316 µM
same,IC50,[4],< 0.0316 µM
same,IC50,[5],< 0.0316 µM
same,IC50,[6],< 0.0316 µM
same,"viability, T/C",[7],110%
same,"viability, T/C",[8],90.6%
same,"viability, T/C",[9],92.7%
same,"viability, T/C",[10],101%
same,"viability, T/C",[11],57%
same,"viability, T/C",[12],7.85%
same,"viability, T/C",[13],84.4%
same,"viability, T/C",[14],78%
same,"viability, T/C",[15],77.3%
same,"viability, T/C",[16],65.3%
same,"viability, T/C",[17],25.8%
same,"viability, T/C",[18],2.96%
same,"viability, T/C",[19],22.3%
same,"viability, T/C",[20],19.1%
same,"viability, T/C",[21],15.2%
same,"viability, T/C",[22],15.9%
same,"viability, T/C",[23],2.42%
same,"viability, T/C",[24],1.03%
same,"viability, T/C",[25],1.13%
same,"viability, T/C",[26],1.4%
same,"viability, T/C",[27],0.97%
same,"viability, T/C",[28],1.21%
same,"viability, T/C",[29],1.83%
same,"viability, T/C",[30],0.7%
same,"viability, T/C",[31],1.82%
same,"viability, T/C",[32],1.26%
same,"viability, T/C",[33],0.87%
same,"viability, T/C",[34],2.2%
same,"viability, T/C",[35],1.61%
same,"viability, T/C",[36],0.94%
same,"viability, T/C",[37],1.7%
same,"viability, T/C",[38],0.57%
same,"viability, T/C",[39],0.67%
same,"viability, T/C",[40],2.12%
same,"viability, T/C",[41],2.19%
same,"viability, T/C",[42],0.39%
